Where a name gives a salt, the structure may show the parent alone.
What was measured:
Duck Hepatitis B Virus = assay: Anti-viral (anti-HBV) test in vivo, DHBV-DNA level by PCR; design: species or system GaoYou pockmark ducks; details: ducks, once a day, day 0 level as base line of 100
Protocol: Two-month old pockmark ducks vertically infected with Duck Hepatitis B Virus were selected as animal models to conduct anti-HBV test in vivo, the efficacy was investigated. 80 GaoYou pockmark ducks were divided randomly into. 8 groups, 10 ducks per groups, three groups were given TD fumarate at the dosage of 5, 15, 45 mg/kg once a day respectively, other three groups were given Tenofovir Disoproxil Fumarate at the dosage of 5, 15, 45 mg/kg once a day respectively, other one group was given Adefovir Dipivoxil at the dosage of 15 mg/kg once a day and the remaining group was blank control group. All the groups were administered for 28 days, and blood samples were taken every 7 days to determine the inhibitory effect to the DHBV-DNA level by PCR, inhibition rate was listed in the following table.

[1] = type: physicochemical; details: for amount of solvent (ml), 0.1N HCl / amount of solvent (ml), 0.1N NaOH / amount of solvent (ml), anhydrous ethanol / amount of solvent (ml), methanol / amount of solvent (ml), water: to dissolve 1 g of sample
[2] = High humidity test (room temperature, relative humidity 75±5%); type: physicochemical; details: 25° C.
Protocol: Samples were evenly spread out and placed in open culture dishes, wherein the thickness thereof was less than 5 mm, put in a thermostatic drying chamber at room temperature (25° C.) with relative humidity of 75±5%. Then the samples were taken on the fifth and tenth day respectively for determination, compared with the result of day 0, results were listed in the table below

[3] = Light exposure test (4500±500 Lx); type: physicochemical; details: light 4500±500 Lx
Excerpt: Samples were evenly spread out and placed in open culture dishes and the thickness thereof was less than 5 mm, then distances were adjusted until the illumination intensity was 4500±500 Lx, samples were taken on the fifth and tenth day respectively for determination, compared with the result of day 0, results were listed in the table below: […]

[4] = Acceleration test (40° C., relative humidity 75%); type: physicochemical
Protocol: Samples were sealed with polyethylene plastic bags, placed in the thermostatic drying chamber at 40±2° C. with relative humidity of 75±5% for 3 months. Then the samples were taken at the end of the first, second and third month respectively for determination, compared with the result of day 0, results were listed in the table below: […]

[5] = High temperature test (60° C.); type: physicochemical; details: sealed ampoules
Protocol: Samples were sealed in clean glass ampoules and put in 60° C. thermostatic drying chamber, then they were taken on the fifth and tenth day respectively for determination, compared with the result of day 0, results were listed in the table below:
Samples were sealed in clean glass ampoules and put in 60° C. thermostatic drying chamber, then they were taken on the fifth and tenth day respectively for determination, compared with the result of day 0, results were listed in the table below

Row | SMILES | solubility conclusion, 0.1N HCl [1] | solubility conclusion, 0.1N NaOH [1] | solubility conclusion, anhydrous ethanol [1] | solubility conclusion, methanol [1] | amount of solvent (ml), 0.1N HCl [1] | amount of solvent (ml), 0.1N NaOH [1] | amount of solvent (ml), anhydrous ethanol [1] | amount of solvent (ml), methanol [1] | amount of solvent (ml), water ([1]; water) | solubility conclusion, water ([1]; water) | content (%) ([2]; day 0) | Weight gain after moisture absorption (%) ([2]; day 5) | content (%) ([2]; day 5) | Weight gain after moisture absorption (%) ([2]; day 10) | content (%) ([2]; day 10) | content (%) ([3]; day 0) | content (%) ([3]; day 5) | content (%) ([3]; day 10) | content (%) ([4]; end of month 1) | content (%) ([4]; end of month 2) | further results
1 | CC(C)OC(=O)OCOP(=O)(CO[C@H](C)Cn1cnc2c(N)ncnc21)OCOC(=O)OC(C)C [Tenofovir Disoproxil Fumarate] |  |  |  |  |  |  |  |  |  |  |  |  |  |  |  |  |  |  |  |  | DHBV-DNA level, First week (Duck Hepatitis B Virus; 5 mg/ml group): 90 ± 9; DHBV-DNA level, Fourth week (Duck Hepatitis B Virus; 5 mg/ml group): 50 ± 7; DHBV-DNA level, Second week (Duck Hepatitis B Virus; 5 mg/ml group): 79 ± 5; DHBV-DNA level, Third week (Duck Hepatitis B Virus; 5 mg/ml group): 65 ± 6; DHBV-DNA level, First week (Duck Hepatitis B Virus; 15 mg/ml group): 83 ± 6; DHBV-DNA level, Fourth week (Duck Hepatitis B Virus; 15 mg/ml group): 37 ± 8; DHBV-DNA level, Second week (Duck Hepatitis B Virus; 15 mg/ml group): 66 ± 7; DHBV-DNA level, Third week (Duck Hepatitis B Virus; 15 mg/ml group): 53 ± 5; DHBV-DNA level, First week (Duck Hepatitis B Virus; 45 mg/ml group): 75 ± 9; DHBV-DNA level, Fourth week (Duck Hepatitis B Virus; 45 mg/ml group): 25 ± 7; DHBV-DNA level, Second week (Duck Hepatitis B Virus; 45 mg/ml group): 43 ± 8; DHBV-DNA level, Third week (Duck Hepatitis B Virus; 45 mg/ml group): 35 ± 6
2 | C[C@H](Cn1cnc2c(N)ncnc21)OCP(=O)(OCOC(=O)C(C)(C)C)OCOC(=O)C(C)(C)C [amorphous TD, 9-[2-(R)-[bis[pivaloyloxymethoxy]-phosphinylmethoxy]propyl]adenine] | soluble | slightly | freely soluble | freely soluble | 25.2 mL | 613 mL | 5.6 mL | 2.0 mL | 380 mL | soluble | 99.0% | 1.0% | 97.9% | 2.3% | 95.8% | 98.5% | 98.3% | 98.1% | 92.3% | 88.9% | water solubility compared with other solid TD forms, in words ([1]; water): better solubility than crystalline TD in water; content (%) ([4]; end of month 3): 82.8%; content (%) ([4]; month 0): 99.0%; content (%) ([5]; day 0): 98.5%; content (%) ([5]; day 5): 97.5%; content (%) ([5]; day 10): 97.1%
3 | CC(Cn1cnc2c(N)ncnc21)OCP(=O)(OCOC(=O)C(C)(C)C)OCOC(=O)C(C)(C)C.CC1(C)CCC2(C(=O)O)CCC3(C)C(=CCC4C5(C)CCC(O)C(C)(C)C5CCC43C)C2C1 (stereo not drawn) [TD oleanolate] | not | not soluble | slightly | slightly | >1000 mL | >1000 mL | 650 mL | 760 mL | >1000 mL | not soluble | 99.2% | 0% | 99.1% | 0% | 99.1% | 99.2% | 99.0% | 99.3% | 98.7% | 98.5% | content (%) ([4]; end of month 3): 98.4%; content (%) ([4]; month 0): 99.2%; content (%) ([5]; day 0): 99.0%; content (%) ([5]; day 5): 98.9%; content (%) ([5]; day 10): 98.6%

Reference: patent publication US8507463B2, “Nucleotide analogue prodrug and the preparation thereof” (Jiangsu Chia Tai Tianqing Pharmaceutical Co., Ltd., priority 2005, dated 2013)
